In US10278942B2 (PELOTON THERAPEUTICS, INC., priority 2015, dated 2019):
Like-named read-outs stand apart in the source and are kept apart here.

Key:
786-O-Hif-Luc cells = assay: Luciferase Assay (HIF responsive elements reporter)
Description: A pool of infected cells were then selected against 2 μg/mL of puromycin (P8833, Sigma) for 10 days followed by limited dilution to select single clones. […] Each concentration was tested in triplicate. After about 24 hours, luciferase activity was determined using ONE-Glo Luciferase Assay Reagent (E6110, Promega) following the manufacturer's recommended procedure. EC50 were calculated using Dotmatics software.

[1] = target: T1, HIF-2α HIS TAG-PASB Domain (Homo sapiens, UniProt Q99814); assay: HIF-2α Scintillation Proximity Assay (SPA); format: binding
T1 construct: 100 nM HIF-2α HIS TAG-PASB Domain
Procedure, shortened: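 IC50 values rest on percent inhibition, where the sample signal is scaled between high and low controls. Wells contain about 100 μL: compound dispensed as 2 μL of DMSO solution, 88 μL protein-probe mix and 10 μL of beads.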

[2] = read-out: Mean Luciferase EC50 (nM), 786-O-Hif-Luc cells
[3] = read-out: Scintillation Proximity Assay IC50

T1 sequence (Q99814 240-350 limits assumed): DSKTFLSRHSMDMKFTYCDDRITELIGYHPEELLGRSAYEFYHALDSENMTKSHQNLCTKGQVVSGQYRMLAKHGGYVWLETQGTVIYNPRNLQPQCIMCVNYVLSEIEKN

Structure (SMILES)	EC50 (786-O-Hif-Luc cells; [2])	IC50 [1, 3]	EC50 (786-O-Hif-Luc cells; read-out: Mean Luciferase EC50 (nM))	IC50 ([1]; Scintillation Proximity Assay IC50 (nM))
O=S(=O)(c1ccc(OCC2CCC2)c2c1[C@H](O)C(F)(F)C2)C(F)(F)F [Compound 716]	< 50 nM	< 50 nM		
O=S(=O)(c1ccc(Oc2cncc(Cl)c2)c2c1[C@H](O)CC2)C(F)F [Compound 3]	250 to 1000 nM	250 to 1000 nM		
CS(=O)(=O)c1ccc(C(F)(F)CO)c2c1C(O)CC2 (centres unmarked) [Compound 554]	> 1000 nM	50 to 249 nM		
CS(=O)(=O)c1ccc(Oc2cncc(C#N)c2)c2c1[C@H](O)[C@H](F)C2 [Compound 313]	> 1000 nM	> 1000 nM		
CS(=O)(=O)c1ccc(Oc2cc(F)cc(Cl)c2)c(C(F)F)c1C#N [Compound 92]	250 to 1000 nM	< 50 nM		
O=S(=O)(c1ccc(-c2ccccc2)c2c1[C@H](O)C(F)(F)C2)C(F)(F)F [Compound 487, (S)-2,2-difluoro-4-phenyl-7-((trifluoromethyl)sulfonyl)-2,3-dihydro-1H-inden-1-ol]	> 1000 nM	250 to 1000 nM		
O=S(=O)(c1ccc(Oc2c(F)ccc3[nH]ncc23)c2c1[C@H](O)C(F)(F)C2)C(F)(F)F [Compound 264]	> 1000 nM	250 to 1000 nM		
CS(=O)(=O)c1ccc(Oc2cc(F)cc(C#N)c2)c2c1[C@H](O)C(F)(Cl)C2 (some centres unmarked) [Compound 270]	50 to 249 nM	50 to 249 nM		
CS(=O)(=O)c1ccc(OCC2(C#N)CC2)c2c1[C@H](O)C(F)(F)[C@@H]2F [Compound 754]	> 1000 nM	250 to 1000 nM		
O=S(=O)(c1ccc(-c2ccc(Cl)cc2)c2c1[C@H](O)C(F)(F)C2)C(F)(F)F [Compound 563]	250 to 1000 nM	50 to 249 nM		
CC1(COc2ccc(S(=O)(=O)C(F)(F)F)c3c2CC(F)(F)C3O)COC1 (centres unmarked) [Compound 622]	250 to 1000 nM	250 to 1000 nM		
O=S1(=O)c2ccc(Oc3cc(F)cc(Cl)c3)c(Br)c2[C@H](O)C1(F)F [Compound 405]			50 to 249 nM	50 to 249 nM
O=S(=O)(c1ccc(-c2cccc(Cl)c2)c2c1[C@H](O)C(F)(F)C2)C(F)(F)F [Compound 485, (S)-4-(3-chlorophenyl)-2,2-difluoro-7-((trifluoromethyl)sulfonyl)-2,3-dihydro-1H-inden-1-ol]	> 1000 nM	< 50 nM		
O[C@H]1c2c(C(F)(F)F)ccc(OC(F)F)c2CC1(F)F [Compound 670]	> 1000 nM	> 1000 nM		
O=S(=O)(c1ccc(Oc2c(F)ccc3[nH]ncc23)c2c1C(O)C(F)(F)C2)C(F)(F)F (centres unmarked) [Compound 244]	> 1000 nM	250 to 1000 nM		
N#Cc1c(Oc2cc(F)cc(F)c2)ccc2c1C(O)C(F)(F)S2(=O)=O (centres unmarked) [Compound 443]	250 to 1000 nM	< 50 nM		

Structure (SMILES)	EC50 (786-O-Hif-Luc cells; [2])	IC50 [1, 3]	EC50 (786-O-Hif-Luc cells; read-out: Mean Luciferase EC50 (nM))	IC50 ([1]; Scintillation Proximity Assay IC50 (nM))
COc1cc(F)cc(Oc2ccc3c(c2C#N)[C@@H](O)C(F)(F)S3(=O)=O)c1 [Compound 427]	> 1000 nM	50 to 249 nM		
Cc1cncc(Oc2ccc3c(c2Br)[C@@H](O)C(F)(F)S3(=O)=O)c1 [Compound 428]	> 1000 nM	> 1000 nM		
N#Cc1c(Oc2cc(F)cc(F)c2)ccc2c1[C@@H](O)CS2(=O)=O [Compound 414]	250 to 1000 nM	50 to 249 nM		
O=S(=O)(c1ccc(OCC(F)(F)F)c2c1[C@H](O)C(F)(F)C2)C(F)(F)F [Compound 675]	< 50 nM	< 50 nM		
NC(=O)Cc1ccc(S(=O)(=O)C(F)(F)F)c2c1CCC2O (centres unmarked) [Compound 523, 2-[1-hydroxy-7-(trifluoromethylsulfonyl)indan-4-yl]acetamide]	50 to 249 nM	250 to 1000 nM		
C[C@@]1(F)Cc2c(Oc3cc(F)cc(C#N)c3)ccc(S(C)(=O)=O)c2[C@@H]1O [Compound 300]	> 1000 nM	> 1000 nM		
O=S(=O)(c1ccc(OC2CCOC2)c2c1C(O)C(F)(F)C2)C(F)(F)F (centres unmarked) [Compound 604]	50 to 249 nM	50 to 249 nM		
N#Cc1cccc(Oc2ccc3c(c2C(F)F)[C@@H](O)C(F)(F)S3(=O)=O)c1 [Compound 435]	< 50 nM	< 50 nM		
CS(=O)(=O)c1ccc(OCC2CC2(F)F)c2c1[C@H](O)C(F)(F)[C@@H]2F (some centres unmarked) [Compound 756]	250 to 1000 nM	< 50 nM		
CS(=O)(=O)c1ccc(OC2CC(F)(F)C2)c2c1[C@H](O)C(F)(F)[C@H]2F [Compound 575, (1S,3S)-4-(3,3-difluorocyclobutoxy)-2,2,3-trifluoro-7-(methylsulfonyl)-2,3-dihydro-1H-inden-1-ol]	> 1000 nM	250 to 1000 nM		
CO[C@H]1C[C@H](Oc2ccc(S(=O)(=O)C(F)(F)F)c3c2CC(F)(F)[C@H]3O)C1 [Compound 714]	250 to 1000 nM	50 to 249 nM		
OC1c2c(C(F)(F)F)ccc(OCC(F)F)c2CC1(F)F (centres unmarked) [Compound 686]	50 to 249 nM	50 to 249 nM		
C[C@]1(C#N)C[C@@H](Oc2ccc(S(=O)(=O)C(F)(F)F)c3c2CC(F)(F)[C@H]3O)C1 [Compound 789]	< 50 nM	< 50 nM		
N#C[C@H]1C[C@@H](Oc2ccc(S(=O)(=O)C(F)(F)F)c3c2CC(F)(F)[C@H]3O)C1 [Compound 787]	< 50 nM	< 50 nM		
CS(=O)(=NC#N)c1ccc(Oc2cc(F)cc(C#N)c2)c2c1[C@H](O)[C@H](F)C2 (some centres unmarked) [Compound 302]	50 to 249 nM	50 to 249 nM		
